Laboratory results reported in patent US8067535B2 (priority 2003, dated 2011).

Columns and labels:
[1] = system: CD8^+ T cells in PBMCs of HLA-A0201-positive donors; format: cell-based, human
[2] = system: vaccinia virus-specific CD8^+ CTL lines; format: cell-based, human

CLTEYILWV [peptide 74A]
kinetics of the frequency of epitope-specific CD8^+ T cells: peak [1]: peaked two weeks after primary immunization | kinetics of the frequency of epitope-specific CD8^+ T cells: persistence [1]: still detectable one to three years following primary immunization | recognition by CTL line [2]: recognized | specific recognition of epitope peptide by CTL line [2]: high level of specific recognition

MPAYIRNTL [peptide B7034]
recognition by CTL line [2]: recognized

KVDDTFYYV [peptide 165]
kinetics of the frequency of epitope-specific CD8^+ T cells: peak [1]: peaked two weeks after primary immunization | kinetics of the frequency of epitope-specific CD8^+ T cells: persistence [1]: still detectable one to three years following primary immunization | recognition by CTL line [2]: recognized | specific recognition of epitope peptide by CTL line [2]: high level of specific recognition

LLYAHINAL [peptide 029D]
recognition by CTL line [2]: recognized

TVADVRHCL [peptide B7080]
recognition by CTL line [2]: recognized
